Source: ChEMBL document CHEMBL1148874, “Design, synthesis, and anti-HIV activity of 2',3'-didehydro-2',3'-dideoxyuridine (d4U), 2',3'-dideoxyuridine (ddU) phosphoramidate 'ProTide' derivatives” (Bioorg Med Chem Lett, 2007)

Experiments:
[1] = Cytotoxicity against CEM/0 cells; format: cell-based, CCRF-CEM; conditions: human
[2] = test system: Human immunodeficiency virus 1; assay: Inhibition of HIV1-induced cytopathogenicity in CEM/0 cells; format: functional, organism-based; conditions: Human immunodeficiency virus 1, CCRF-CEM
[3] = test system: Human immunodeficiency virus 2; assay: Inhibition of HIV2-induced cytopathogenicity in CEM/0 cells; format: functional, organism-based; conditions: Human immunodeficiency virus 2, CCRF-CEM

EC50 [2] | EC50 [3] | SMILES | CC50 [1]
> 250 µM | > 250 µM | C[C@@H](NP(=O)(OC[C@@H]1CC[C@H](n2ccc(=O)[nH]c2=O)O1)Oc1ccccc1)C(=O)OC(C)(C)C (some centres not stated) | > 250 µM
> 250 µM | > 250 µM | O=c1ccn([C@H]2CC[C@@H](CO)O2)c(=O)[nH]1 | > 250 µM
25 µM | 25 µM | C[C@@H](NP(=O)(OC[C@@H]1C=C[C@H](n2ccc(=O)[nH]c2=O)O1)Oc1cccc2ccccc12)C(=O)OCc1ccccc1 (some centres not stated) | 100 µM
43.3 µM | 93.3 µM | CCOC(=O)[C@@H](C)NP(=O)(OC[C@@H]1CC[C@H](n2ccc(=O)[nH]c2=O)O1)Oc1ccccc1 (some centres not stated) | > 250 µM
> 50 µM | > 50 µM | O=c1ccn([C@H]2C=C[C@@H](CO)O2)c(=O)[nH]1 | 207 µM
> 50 µM | > 10 µM | COC(=O)[C@@H](C)NP(=O)(OC[C@@H]1C=C[C@H](n2ccc(=O)[nH]c2=O)O1)Oc1ccccc1 (some centres not stated) | 96.6 µM
> 50 µM | > 50 µM | CCOC(=O)[C@@H](C)NP(=O)(OC[C@@H]1C=C[C@H](n2ccc(=O)[nH]c2=O)O1)Oc1ccccc1 (some centres not stated) | 212 µM
 | 0.77 µM | Cc1cn([C@H]2C=C[C@@H](CO)O2)c(=O)[nH]c1=O [STAVUDINE] | 174 µM
36.7 µM | ≥ 50 µM | COC(=O)[C@@H](C)NP(=O)(OC[C@@H]1CC[C@H](n2ccc(=O)[nH]c2=O)O1)Oc1ccccc1 (some centres not stated) | 121 µM
> 250 µM | > 250 µM | C[C@@H](NP(=O)(OC[C@@H]1C=C[C@H](n2ccc(=O)[nH]c2=O)O1)Oc1ccccc1)C(=O)OC(C)(C)C (some centres not stated) | > 250 µM
15 µM | 20 µM | C[C@@H](NP(=O)(OC[C@@H]1CC[C@H](n2ccc(=O)[nH]c2=O)O1)Oc1cccc2ccccc12)C(=O)OCc1ccccc1 (some centres not stated) | 96.9 µM
